Legend:
[1] = Tumor uptake of Tc99m-medronate, biodistribution; format: in vivo; settings: nude mice, i.v.
Description: Tumor uptake of Tc99m-medronate. To investigate accumulation of the bone scanning agent (Tc99m-medronate) into the subcutaneous tumors, nude mice were first inoculated subcutaneously with AB-12 or MDA-MB-231 cells (10^6 cells in 100 μl of sterile PBS) and the tumors were allowed to form for 3-4 weeks. Tc99m-medronate (MDP-Bracco™; Bracco Diagnostics Inc.; Princeton, N.J.) was then injected into the tail veins of the mice (˜800-1000 μCi per mouse) in 100 μl. High-resolution pinhole SPECT/CT imaging studies (X-SPECT system, GammaMedica, Inc.; Northridge, Calif.) and biodistribution analyses were performed in nude mice with xenografted rumors to measure in vivo tumor retention of Tc99 medronate following i.v. injection. For SPECT imaging, a total of 64 projections were acquired with a 30-sec acquisition time per projection, using a pinhole collimator with a 1-mm tungsten pinhole insert. […] The dose retention, or % Injected Dose per gram, (% ID/g) of each tissue was calculated by measuring the radioactivity in the tissue using a gamma counter, decay correcting the count rate data to the Tc99m-medronate injection time and normalizing to the total injected dose in the animal as well as the tissue weight. Each animal's dose was determined by measuring the dosing syringe (AtomLab 100 dose calibrator; Biodex Medical Systems; Shirley, N.Y.) before and after injecting the mouse. […]

[2] = tested on: unprenylated Rap1A in AB-12 mesothelioma cells; assay: Western blot, unprenylated Rap1A (Example 2); format: cell-based, mouse; settings: AB-12 cells, 24 h; for effect on nitrogen-containing bisphosphonate-induced accumulation of unprenylated Rap1A: pyrophosphate-resembling : nitrogen-containing bisphosphonate ratio 100:1
Description: (§1) Western blot analysis. Cells were cultured on 6-well plates in normal culture medium until near confluency. The cells were then rinsed with sterile PBS and cultured for further 24 h in serum-tree culture medium, in the presence or absence of the indicated bisphosphonates. Some cultures were also treated with 25 μM geranylgeraniol (cold, all trans), 1.0 μg/ml LPS (Sigma; St. Louis, Mo.) 10 ng/ml IL-1β (R&D Systems; Minneapolis, Minn.) or TNF-α (R&D Systems). To study bisphosphonate effects on connexin-43 expression, the cells were cultured for 24 h in serum-free culture medium in the presence of the indicated bisphosphonates or PBS as a vehicle control. Culture medium was then discarded, the cells were quickly lysed and prepared into Western blot samples, as described in Merrell et al. (2000) Breast Cancer Res. Treat. 81, 231-241. After boiling the supernatants in reducing sodium docedyl sulfate (SDS) sample buffer, equal amounts of protein (˜20-50 μg) were loaded per lane and the samples were electrophoresed on 10% SDS polyacrylamide gel and transferred to a nitrocellulose membrane. To detect, unprenylated Rap1A, the blots were incubated overnight at 4° C. with the antibody SC-1482 (Santa Cruz Technology (San Diego, Calif.)), diluted 1:1000 in Tris-buffered saline, 0.1% (v/v) Tween-20 (TEST), and then with peroxidase-conjugated anti-goat serum (Pierce; Rockford, Ill.), diluted 1:1000 in TBST. Total Rap1 was detected from stripped blots in a similar fashion, with the antibody SC-65 (Santa Cruz Technology). The phosphorylation status of p38 was investigated using anti-phospho-p38 (Cell Signaling; Beverly, Mass.) and after stripping of the membrane, with anti-total p38 antibodies (Cell Signaling), according to the manufacturer's instructions. Expression of connexin-43 was detected with a rabbit anti-connexin-43 antibody (Zymed Laboratories, Inc.; San Francisco, Calif.), diluted 1:1000 in TBST. The protein bands were visualized by chemiluminescence using SuperSignal West Pico ECL kit (Pierce Biotechnology, Inc.; Rockford, Ill.).

[3] = tested on: unprenylated Rap1A in MDA-MB-231 breast cancer cells; assay: Western blot, unprenylated Rap1A (Example 2); format: cell-based, human; settings: MDA-MB-231 cells, 24 h; for effect on alendronate-induced accumulation of unprenylated Rap1A: 10^−4 M alendronate plus clodronate 10^−3 M, geranylgeraniol 25 μM, or cytokines/LPS
Description: as §1

MDA-MB-231 cells = assay: Cell viability, MTS-assay; format: cell-based, human; settings: for effect of added Ca2+ on the bisphosphonate's growth inhibitory effect: 1 mM CaCl2, N-BP 10^−4 M or p-BP 10^−3 M
Description: (§2) Cell viability assays. Cells were plated on 96-well plates at the density of 1×10^3 cells in 100 μl per well in normal culture medium, with or without of the indicated concentrations of the various bisphosphonate combinations and or 1 mM CaCl2, 1 mM EGTA or vehicle and cultured for 48 h. Cell viability was assessed with 3-(4,5-dimethylthiazol-2-yl)-5-(3-carboxy tetrazolium, inner salt (MTS)-assays (CellTiter Aqueous One 96 from Promega; Madison, Wis.) according to the manufacturer's instructions. For each treatment, a PBS-control group was run simultaneously on the same plate. The results for each treatment were calculated as % of the corresponding PBS-group.

AB-12 cells = assay: Cell viability, MTS-assay; format: cell-based, mouse; settings: for effect of added Ca2+ on the bisphosphonate's growth inhibitory effect: 1 mM CaCl2, N-BP 10^−4 M or p-BP 10^−3 M
Description: as §2

J774 cells = assay: Cell viability, MTS-assay; format: cell-based; settings: for effect of added EGTA on the bisphosphonate's growth inhibitory effect: 1 mM EGTA, N-BP 10^−4 M or clodronate 10^−3 M
Description: as §2

[4] = tested on: p38 phosphorylation in AB-12 cells; assay: Western blot, phosphorylation of p38 (Example 2); format: cell-based, mouse; settings: excess, added simultaneously
Description: as §1, with “To detect, unprenylated Rap1A, the blots were incubated overnight at 4° C. with the antibody SC-1482 (Santa Cruz Technology (San Diego, Calif.)), diluted 1:1000 in Tris-buffered saline, 0.1% (v/v) Tween-20 (TEST), and then with peroxidase-conjugated anti-goat serum (Pierce; Rockford, Ill.), diluted 1:1000 in TBST.” left out, “The phosphorylation status of p38 was investigated using anti-phospho-p38 (Cell Signaling; Beverly, Mass.) and after stripping of the membrane, with anti-total p38 antibodies (Cell Signaling), according to the manufacturer's instructions.” left out, “The protein bands were visualized by chemiluminescence using SuperSignal West Pico ECL kit (Pierce Biotechnology, Inc.; Rockford, Ill.).” left out

[5] = tested on: p38 phosphorylation in MDA-MB-231 cells; assay: Western blot, phosphorylation of p38 (Example 2); format: cell-based, human; settings: 10^−3 M
Description: as §1, with “To detect, unprenylated Rap1A, the blots were incubated overnight at 4° C. with the antibody SC-1482 (Santa Cruz Technology (San Diego, Calif.)), diluted 1:1000 in Tris-buffered saline, 0.1% (v/v) Tween-20 (TEST), and then with peroxidase-conjugated anti-goat serum (Pierce; Rockford, Ill.), diluted 1:1000 in TBST.” left out, “The phosphorylation status of p38 was investigated using anti-phospho-p38 (Cell Signaling; Beverly, Mass.) and after stripping of the membrane, with anti-total p38 antibodies (Cell Signaling), according to the manufacturer's instructions.” left out, “The protein bands were visualized by chemiluminescence using SuperSignal West Pico ECL kit (Pierce Biotechnology, Inc.; Rockford, Ill.).” left out

Question: With `O=P(O)(O)CP(=O)(O)O` [Tc99m-medronate, metal not drawn] as the compound, how does the “tissue with the highest accumulation: bones” value ([1]; % dose retention in various tissues) read?
Answer: highest proportion

Question: What about the “accumulation (% dose retention) in AB-12 mesothelioma tumors compared with MDA-MB-231 breast cancer tumors” value ([1]; tissues ~8 h after injection, % ID/g normalized to blood, P<0.05) of the same compound?
Answer: significantly higher

Question: Which “accumulation of unprenylated Rap1A” value [2] does the source give for `NCCCC(O)(P(=O)(O)O)P(=O)(O)O` [alendronate] here?
Answer: dose-dependent accumulation

Question: And the “accumulation of unprenylated Rap1A” value [3]?
Answer: dose-dependent accumulation

Question: What about the “effect of added EGTA on the bisphosphonate's growth inhibitory effect” value (MDA-MB-231 cells; 1 mM EGTA, N-BP 10^−4 M) of the same compound?
Answer: reversed

Question: What about the cell viability (MDA-MB-231 cells; 10^−4 M, P<0.001) of the same compound?
Answer: significant decrease in cell viability

Question: And the “effect of added EGTA on the bisphosphonate's growth inhibitory effect” value (AB-12 cells; 1 mM EGTA, N-BP 10^−4 M)?
Answer: reversed

Question: What about the cell viability (AB-12 cells; 10^−4 M, P<0.001) of the same compound?
Answer: significant decrease in cell viability

Question: What about the “effect of added EGTA on the bisphosphonate's growth inhibitory effect” value (J774 cells) of the same compound?
Answer: reversed

Question: For `O=P(O)(O)C(Cl)(Cl)P(=O)(O)O` [clodronate], which “accumulation of unprenylated Rap1A” value [2] is on record?
Answer: no effect

Question: And the “effect on nitrogen-containing bisphosphonate-induced accumulation of unprenylated Rap1A” value [2]?
Answer: completely blocked

Question: What about the “effect on alendronate-induced accumulation of unprenylated Rap1A” value [3] of the same compound?
Answer: reduced

Question: And the “accumulation of unprenylated Rap1A” value [3]?
Answer: no effect

Question: And the “effect on nitrogen-containing bisphosphonate (risedronate or zoledronate)-induced p38 phosphorylation” value [4]?
Answer: blocked

Question: And the “effect on zoledronate-induced (10^−4 M) p38 phosphorylation” value [5]?
Answer: blocked

Question: And the “effect of added Ca2+ on the bisphosphonate's growth inhibitory effect” value (MDA-MB-231 cells)?
Answer: not

Question: And the “effect of added Ca2+ on the bisphosphonate's growth inhibitory effect” value (AB-12 cells)?
Answer: augmented

Question: What about the “effect of added EGTA on the bisphosphonate's growth inhibitory effect” value (J774 cells) of the same compound?
Answer: reversed

Question: What about the cell viability (J774 cells; 10^−3 M alone, P<0.001 vs PBS-control) of the same compound?
Answer: highest sensitivity

Question: What about the “cell viability in combination with 1 mM CaCl2” value (J774 cells; clodronate 10^−3 M + 1 mM CaCl2) of the same compound?
Answer: toxic

Question: Which results are given for `CC(O)(P(=O)(O)O)P(=O)(O)O` [etidronate]?
Answer: accumulation of unprenylated Rap1A [2]: no effect; effect on nitrogen-containing bisphosphonate-induced accumulation of unprenylated Rap1A [2]: completely blocked; accumulation of unprenylated Rap1A [3]: no effect; effect on nitrogen-containing bisphosphonate (risedronate or zoledronate)-induced p38 phosphorylation [4]: blocked; effect on zoledronate-induced (10^−4 M) p38 phosphorylation [5]: blocked; effect of added Ca2+ on the bisphosphonate's growth inhibitory effect (MDA-MB-231 cells): not; effect of added Ca2+ on the bisphosphonate's growth inhibitory effect (AB-12 cells): augmented

Question: Which “effect on alendronate-induced accumulation of unprenylated Rap1A” value [3] does the source give for `CC(C)=CCC/C(C)=C/CC/C(C)=C/CC/C(C)=C/CO` [geranylgeraniol] here?
Answer: reduced

Question: For “IL-1β: cytokine (R&D Systems), molecule completely unrelated to bisphosphonates”, which “effect on alendronate-induced accumulation of unprenylated Rap1A” value [3] is on record?
Answer: not blocked

Question: With TNF-α as the compound, how does the “effect on alendronate-induced accumulation of unprenylated Rap1A” value [3] read?
Answer: not blocked

— US20090075941A1, “TREATING NEOPLASMS” (THE UAB RESEARCH FOUNDATION, priority 2006, published 2009)
